# Assay results taken from ChEMBL document CHEMBL1201862, “PubChem BioAssay data set” (2004).
# Active and inactive are the calls of the source.
# Key:
# [1] = target: Serine/threonine-protein phosphatase PP1-alpha catalytic subunit (Homo sapiens, UniProt P62136); test: PP1 phosphatase inhibitors, dose response, biochemical, fluorescence (AID 2403);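 further: phosphatase turnover of OMFP into fluorescent 3-O-methylfluorescein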
# [2] = target: Serine/threonine-protein phosphatase (Homo sapiens, UniProt Q9BPW0); test: Counterscreen for inhibitors of PP1: fluorescence-based biochemical high throughput dose response assay to identify inhibitors of Protein Phosphatase 5 (PP5). [Related pubchem assays: 2034 (Summary (PP5 inhibitors)), 1987 (PP5 inhibitors in singlate), 2235 (PP1 inhibitors in singlate)]
# [3] = target: T1, Short transient receptor potential channel 4 (Mus musculus, UniProt Q9QUQ5); test: mouse TRPC4 channel inhibitors, dose response, cell-based, HEK293 TRPC4/mu-opioid, Fluo-4 calcium (AID 434942); format: functional;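 further: potency of inhibitors blocking the TRPC4 calcium response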
# T1 sequence (Q9QUQ5 whole entry): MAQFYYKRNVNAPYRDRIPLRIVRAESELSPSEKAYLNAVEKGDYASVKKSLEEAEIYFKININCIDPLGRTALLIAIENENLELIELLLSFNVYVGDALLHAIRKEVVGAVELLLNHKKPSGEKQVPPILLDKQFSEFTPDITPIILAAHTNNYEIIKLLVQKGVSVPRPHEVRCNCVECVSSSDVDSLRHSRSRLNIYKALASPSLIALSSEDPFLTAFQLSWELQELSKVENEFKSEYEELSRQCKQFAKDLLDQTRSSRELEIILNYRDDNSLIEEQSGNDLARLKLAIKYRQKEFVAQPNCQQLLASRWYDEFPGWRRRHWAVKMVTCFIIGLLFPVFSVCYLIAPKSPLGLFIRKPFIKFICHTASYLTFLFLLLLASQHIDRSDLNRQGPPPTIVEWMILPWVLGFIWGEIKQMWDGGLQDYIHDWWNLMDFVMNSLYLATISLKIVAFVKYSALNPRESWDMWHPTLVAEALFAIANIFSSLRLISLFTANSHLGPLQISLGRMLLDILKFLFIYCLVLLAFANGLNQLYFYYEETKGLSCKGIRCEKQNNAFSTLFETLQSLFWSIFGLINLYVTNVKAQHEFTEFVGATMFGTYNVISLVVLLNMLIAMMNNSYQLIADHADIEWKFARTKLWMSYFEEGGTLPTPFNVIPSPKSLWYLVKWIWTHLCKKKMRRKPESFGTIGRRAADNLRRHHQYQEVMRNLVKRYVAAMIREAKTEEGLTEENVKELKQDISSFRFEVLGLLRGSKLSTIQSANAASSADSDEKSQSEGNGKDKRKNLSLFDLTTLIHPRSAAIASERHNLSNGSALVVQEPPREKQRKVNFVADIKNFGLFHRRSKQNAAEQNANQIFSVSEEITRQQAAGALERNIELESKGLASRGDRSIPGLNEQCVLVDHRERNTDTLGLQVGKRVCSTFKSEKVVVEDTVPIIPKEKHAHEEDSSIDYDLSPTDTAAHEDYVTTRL
# [4] = target: Eukaryotic translation initiation factor 4E (Mus musculus, UniProt P63073); test: eIF4E–eIF4G protein interaction inhibitors, dose response, biochemical, TR-FRET (AID 855); format: functional;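 further: potency for disrupting eIF4E binding to eIF4GI seen as loss of FRET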
# [5] = target: T2, Eukaryotic translation initiation factor 2-alpha kinase 3 (Homo sapiens, UniProt Q9NZJ5); test: Dose response cell-based high-throughput screening assay to measure PERK inhibition. [Related pubchem assays: 1416 ]; format: functional
# [6] = target: T2, Eukaryotic translation initiation factor 2-alpha kinase 3; test: Counterscreen assay for PERK inhibitors: Dose response cell-based high throughput screening assay to measure inhibition of PERK at 6 hours. [Related pubchem assays: 1522, 1416 ]; format: functional
# [7] = target: Luciferin 4-monooxygenase (Photinus pyralis, UniProt P08659); test: firefly luciferase enzyme inhibitors, dose response, biochemical, luminescence (AID 1891)
# [8] = inhibition of ADP-Glo detection reagents, dose response, artefact control for CDK5 inhibitor project, biochemical, luminescence, cherry-picked samples, set 2 (AID 504546); format: functional
# [9] = target: Cyclin-dependent kinase 5/CDK5 activator 1 (Homo sapiens, UniProt Q00535); test: CDK5/p35 kinase inhibitors, dose response, biochemical, cherry-picked samples, set 2 (AID 504545)
# [10] = Luminescence Cell-Based Dose Confirmation HTS to Identify Inhibitors of Platelet Dense Granule Release. [Related pubchem assays: 1663 (Primary HTS), 1678 (Summary of Project)]; format: functional
# [11] = target: Induced myeloid leukemia cell differentiation protein Mcl-1 (Homo sapiens, UniProt Q07820); test: MCL1-BIM BH3 interaction inhibitors, dose response, biochemical, fluorescence polarization, BIM-BH3 peptide, 1536-well (AID 2217)
# Genome polyprotein = Genome polyprotein (Hepatitis C virus, UniProt Q2Q167); test: HCV core protein dimerization inhibitors, dose response, biochemical, TR-FRET (AID 2159); parameters: species or system Hepacivirus hominis;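 further: blocks dimerization of HCV core protein measured by TR-FRET between tagged core106 pairs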
# [12] = target: T3, Heat shock 70 kDa protein 1A (Homo sapiens, UniProt P0DMV8); test: Hsp70 inhibitors, biochemical, TR-FRET (AID 786)
# Bcl-2-like protein 1 = Bcl-2-like protein 1 (Homo sapiens, UniProt Q07817); test: BCL-XL inhibitors, dose response, selectivity assay for MCL1 inhibitor project, biochemical, fluorescence polarization, 1536-well (AID 2218)
# [13] = target: T3, Heat shock 70 kDa protein 1A; test: Hsp70 inhibitors, probe displacement, primary screen, biochemical, fluorescence polarization (AID 583)
# SUMO E1/E2 = SUMO E1/E2 (Homo sapiens, UniProt P63279+Q9UBE0+Q9UBT2); test: SAR analysis of SUMOylation using HTRF in an in-Vitro dose response assay. [Related pubchem assays (depositor defined):AID2006, AID2011, AID2018, AID2069, AID2658]; format: functional
# [14] = target: T4, Voltage-gated N-type calcium channel alpha-1B subunit/Amyloid beta A4 precursor protein-binding family A member 1 (Homo sapiens, UniProt Q00975+Q02410); test: disruptors of Mint-PDZ/N-type channel peptide interaction – biochemical, HTRF, SAR follow-up (AID 2489); format: functional
# [15] = target: T4, Voltage-gated N-type calcium channel alpha-1B subunit/Amyloid beta A4 precursor protein-binding family A member 1; test: disruptors of Mint-PDZ/N-type channel peptide interaction – biochemical, HTRF, set 2, SAR follow-up (AID 434980); format: functional
# Cytochrome P450 2D6 = Cytochrome P450 2D6 (Homo sapiens, UniProt P10635); test: qHTS Assay for Inhibitors and Substrates of Cytochrome P450 2D6. [Related pubchem assays: 410 ]; format: ADME; settings: read-out: Potency
# Cytochrome P450 2C19 = Cytochrome P450 2C19 (Homo sapiens, UniProt P33261); test: qHTS Assay for Inhibitors and Substrates of Cytochrome P450 2C19. [Related pubchem assays: 410 ]; format: ADME; settings: read-out: Potency
# T2 sequence (Q9NZJ5 whole entry): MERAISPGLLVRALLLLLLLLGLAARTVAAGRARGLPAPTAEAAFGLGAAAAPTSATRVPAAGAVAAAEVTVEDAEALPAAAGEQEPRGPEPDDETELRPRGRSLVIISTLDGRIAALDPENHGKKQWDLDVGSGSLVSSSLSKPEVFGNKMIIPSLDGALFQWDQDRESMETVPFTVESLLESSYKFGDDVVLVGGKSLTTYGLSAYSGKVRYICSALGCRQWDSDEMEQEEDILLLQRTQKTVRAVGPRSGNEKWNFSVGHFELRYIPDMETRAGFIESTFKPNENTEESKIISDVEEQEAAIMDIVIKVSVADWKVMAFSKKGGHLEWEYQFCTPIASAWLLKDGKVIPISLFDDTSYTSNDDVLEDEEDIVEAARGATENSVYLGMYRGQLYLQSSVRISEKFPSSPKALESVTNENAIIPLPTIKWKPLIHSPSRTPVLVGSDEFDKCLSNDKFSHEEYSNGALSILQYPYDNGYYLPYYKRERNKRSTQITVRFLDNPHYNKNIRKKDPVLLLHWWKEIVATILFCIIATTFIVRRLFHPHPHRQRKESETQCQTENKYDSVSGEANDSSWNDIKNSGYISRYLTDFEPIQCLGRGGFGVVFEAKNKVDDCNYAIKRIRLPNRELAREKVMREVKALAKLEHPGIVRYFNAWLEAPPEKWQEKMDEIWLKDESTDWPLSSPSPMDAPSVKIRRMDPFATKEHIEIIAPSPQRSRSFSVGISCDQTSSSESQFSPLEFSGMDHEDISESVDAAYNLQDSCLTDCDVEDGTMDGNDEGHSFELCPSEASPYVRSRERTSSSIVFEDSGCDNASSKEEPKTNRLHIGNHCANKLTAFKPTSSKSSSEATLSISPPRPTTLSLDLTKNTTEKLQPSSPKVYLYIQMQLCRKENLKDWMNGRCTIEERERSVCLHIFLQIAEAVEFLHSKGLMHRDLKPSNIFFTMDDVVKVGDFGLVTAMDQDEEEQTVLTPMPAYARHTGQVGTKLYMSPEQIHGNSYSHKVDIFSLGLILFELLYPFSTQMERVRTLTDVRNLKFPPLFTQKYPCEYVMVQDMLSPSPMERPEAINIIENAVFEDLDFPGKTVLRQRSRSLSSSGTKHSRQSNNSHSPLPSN
# T4 sequence (Q00975 whole entry): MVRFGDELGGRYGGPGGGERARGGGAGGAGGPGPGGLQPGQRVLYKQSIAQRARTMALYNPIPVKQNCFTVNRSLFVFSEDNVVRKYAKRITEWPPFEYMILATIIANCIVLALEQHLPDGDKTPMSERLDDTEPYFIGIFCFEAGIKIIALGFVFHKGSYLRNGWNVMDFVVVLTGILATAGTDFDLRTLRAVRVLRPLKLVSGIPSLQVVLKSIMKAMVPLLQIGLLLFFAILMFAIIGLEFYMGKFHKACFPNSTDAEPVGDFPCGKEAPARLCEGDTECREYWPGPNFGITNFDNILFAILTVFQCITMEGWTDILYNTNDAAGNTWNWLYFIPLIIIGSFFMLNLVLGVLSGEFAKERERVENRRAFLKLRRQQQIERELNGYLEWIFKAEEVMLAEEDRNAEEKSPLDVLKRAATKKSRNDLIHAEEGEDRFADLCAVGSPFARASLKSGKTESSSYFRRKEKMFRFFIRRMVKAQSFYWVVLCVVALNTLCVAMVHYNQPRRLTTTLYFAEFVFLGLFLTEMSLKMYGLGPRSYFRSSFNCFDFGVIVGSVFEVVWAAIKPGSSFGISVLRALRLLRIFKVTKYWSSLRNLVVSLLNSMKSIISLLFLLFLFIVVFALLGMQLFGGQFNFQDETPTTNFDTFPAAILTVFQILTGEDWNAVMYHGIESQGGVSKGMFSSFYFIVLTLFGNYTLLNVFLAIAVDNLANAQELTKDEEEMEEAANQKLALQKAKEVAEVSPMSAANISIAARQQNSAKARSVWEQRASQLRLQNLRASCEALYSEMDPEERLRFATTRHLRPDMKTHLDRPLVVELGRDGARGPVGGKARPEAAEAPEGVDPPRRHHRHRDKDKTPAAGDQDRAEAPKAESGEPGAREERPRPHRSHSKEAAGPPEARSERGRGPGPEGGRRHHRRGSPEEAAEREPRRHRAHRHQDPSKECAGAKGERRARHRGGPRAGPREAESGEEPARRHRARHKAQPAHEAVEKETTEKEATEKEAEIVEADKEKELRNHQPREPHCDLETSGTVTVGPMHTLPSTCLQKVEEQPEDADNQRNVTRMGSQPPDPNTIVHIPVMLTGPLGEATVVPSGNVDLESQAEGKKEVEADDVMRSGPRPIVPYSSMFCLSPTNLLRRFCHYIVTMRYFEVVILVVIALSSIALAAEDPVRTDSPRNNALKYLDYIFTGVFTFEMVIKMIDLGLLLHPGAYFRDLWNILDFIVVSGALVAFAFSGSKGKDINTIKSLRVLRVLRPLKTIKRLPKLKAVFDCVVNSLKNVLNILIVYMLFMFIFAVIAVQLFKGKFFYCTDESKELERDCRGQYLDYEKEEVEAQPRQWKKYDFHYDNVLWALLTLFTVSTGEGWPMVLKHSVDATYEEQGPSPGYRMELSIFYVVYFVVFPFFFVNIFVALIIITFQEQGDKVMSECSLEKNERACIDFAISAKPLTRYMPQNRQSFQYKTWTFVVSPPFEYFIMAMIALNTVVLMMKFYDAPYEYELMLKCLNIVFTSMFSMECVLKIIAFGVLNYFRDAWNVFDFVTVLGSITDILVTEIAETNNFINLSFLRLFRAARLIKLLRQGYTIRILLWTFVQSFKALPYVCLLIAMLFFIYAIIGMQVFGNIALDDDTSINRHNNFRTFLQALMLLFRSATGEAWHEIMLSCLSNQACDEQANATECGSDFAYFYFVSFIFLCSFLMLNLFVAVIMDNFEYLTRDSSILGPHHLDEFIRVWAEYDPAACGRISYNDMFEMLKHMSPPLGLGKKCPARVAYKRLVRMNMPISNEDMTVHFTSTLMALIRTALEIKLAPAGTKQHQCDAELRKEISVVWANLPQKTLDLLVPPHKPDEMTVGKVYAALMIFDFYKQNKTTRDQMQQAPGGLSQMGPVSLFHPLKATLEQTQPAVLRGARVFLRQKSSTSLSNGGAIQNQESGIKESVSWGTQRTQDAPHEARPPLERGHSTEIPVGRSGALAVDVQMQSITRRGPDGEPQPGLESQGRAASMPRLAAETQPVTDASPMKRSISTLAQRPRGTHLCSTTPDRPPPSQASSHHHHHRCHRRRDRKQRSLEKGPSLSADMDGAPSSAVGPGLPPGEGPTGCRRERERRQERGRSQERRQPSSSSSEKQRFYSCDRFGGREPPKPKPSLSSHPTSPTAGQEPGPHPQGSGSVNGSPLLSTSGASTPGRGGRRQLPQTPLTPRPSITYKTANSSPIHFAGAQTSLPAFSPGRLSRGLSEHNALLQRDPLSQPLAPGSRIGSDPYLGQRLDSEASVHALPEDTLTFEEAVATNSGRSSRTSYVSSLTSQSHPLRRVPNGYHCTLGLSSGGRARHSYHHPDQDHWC
# T4 sequence (Q02410 whole entry): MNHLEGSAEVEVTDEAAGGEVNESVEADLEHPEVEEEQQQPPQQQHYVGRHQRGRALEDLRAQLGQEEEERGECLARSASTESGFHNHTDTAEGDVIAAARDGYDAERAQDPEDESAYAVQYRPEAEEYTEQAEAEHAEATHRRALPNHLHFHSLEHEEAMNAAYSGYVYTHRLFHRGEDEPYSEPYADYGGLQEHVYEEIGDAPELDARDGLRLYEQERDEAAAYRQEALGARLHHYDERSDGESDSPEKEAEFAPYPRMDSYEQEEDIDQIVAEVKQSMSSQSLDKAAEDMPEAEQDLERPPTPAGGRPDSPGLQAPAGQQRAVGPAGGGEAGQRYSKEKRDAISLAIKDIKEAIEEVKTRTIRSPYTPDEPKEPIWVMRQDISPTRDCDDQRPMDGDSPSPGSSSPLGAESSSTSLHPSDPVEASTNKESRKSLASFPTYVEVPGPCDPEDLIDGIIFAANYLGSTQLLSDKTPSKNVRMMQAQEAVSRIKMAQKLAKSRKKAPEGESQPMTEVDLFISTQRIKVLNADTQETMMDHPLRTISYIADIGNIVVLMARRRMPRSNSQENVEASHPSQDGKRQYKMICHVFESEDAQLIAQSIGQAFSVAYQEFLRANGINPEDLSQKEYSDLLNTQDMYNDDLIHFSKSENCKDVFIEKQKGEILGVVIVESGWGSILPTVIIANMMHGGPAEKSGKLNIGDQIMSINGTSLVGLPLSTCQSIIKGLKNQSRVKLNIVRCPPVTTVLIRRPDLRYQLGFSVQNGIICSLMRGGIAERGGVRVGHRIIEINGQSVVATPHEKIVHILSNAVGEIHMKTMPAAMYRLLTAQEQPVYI
# T3 sequence (P0DMV8 whole entry): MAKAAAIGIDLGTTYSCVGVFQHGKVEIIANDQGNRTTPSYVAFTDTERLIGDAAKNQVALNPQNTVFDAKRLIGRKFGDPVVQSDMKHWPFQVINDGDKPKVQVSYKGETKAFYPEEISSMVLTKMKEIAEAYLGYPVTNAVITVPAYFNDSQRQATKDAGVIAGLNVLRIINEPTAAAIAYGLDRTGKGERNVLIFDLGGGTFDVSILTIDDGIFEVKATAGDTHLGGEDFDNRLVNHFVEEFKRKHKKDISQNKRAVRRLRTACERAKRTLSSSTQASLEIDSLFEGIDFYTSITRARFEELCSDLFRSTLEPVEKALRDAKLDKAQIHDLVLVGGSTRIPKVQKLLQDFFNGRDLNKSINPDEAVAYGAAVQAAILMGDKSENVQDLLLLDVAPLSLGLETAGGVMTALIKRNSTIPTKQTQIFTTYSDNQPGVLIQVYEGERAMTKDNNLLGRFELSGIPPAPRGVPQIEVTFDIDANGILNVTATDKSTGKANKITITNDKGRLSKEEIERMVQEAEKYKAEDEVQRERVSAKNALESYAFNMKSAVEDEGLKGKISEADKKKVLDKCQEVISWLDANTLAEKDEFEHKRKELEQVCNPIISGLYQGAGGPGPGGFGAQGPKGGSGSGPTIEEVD
# Sequence of Genome polyprotein (Q2Q167 whole entry): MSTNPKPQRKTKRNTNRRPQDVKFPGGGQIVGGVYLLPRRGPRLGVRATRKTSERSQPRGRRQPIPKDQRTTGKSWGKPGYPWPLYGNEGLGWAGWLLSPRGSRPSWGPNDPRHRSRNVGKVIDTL
smiles,measurement,setting,value
COc1ccc2c(Cl)c(C(=O)N/N=C/c3ccncc3)sc2c1,IC50,[1],6.48 µM (active)
same,IC50,[2],> 67 µM (not active)
Cc1cc(/C=C2/C(=N)N3C(=NC2=O)SN=C3S(C)(=O)=O)c(C)n1-c1ccccc1F,EC50,[3],1.19 µM (active)
same,IC50,[4],50 µM (inactive)
same,EC50,[5],> 55.7 µM (not active)
same,EC50,[6],> 55.7 µM (not active)
COc1ccc(C(=O)O/N=C(/C)c2cccs2)cc1,EC50,[7],0.517 µM (active)
same,AC50,[8],31.8 µM (active)
same,AC50,[9],15.7 µM (active)
same,EC50,[10],1.34 µM (active)
COc1ccc(Br)cc1/C=c1\sc2nc(-c3ccco3)nn2c1=O,IC50,[11],10.8 µM (not active)
same,IC50,Genome polyprotein,> 49.8 µM (not active)
same,IC50,[12],> 100 µM (not active)
same,IC50,Bcl-2-like protein 1,> 109 µM (not active)
same,IC50,[13],> 100 µM (not active)
Cc1ccc(S(=O)(=O)N(C)C)cc1NC(=O)c1cc(-c2ccco2)nc2ccccc12,IC50,SUMO E1/E2,4.98 µM (active)
same,IC50,[14],> 56.8 µM (inactive)
same,IC50,[15],> 56.8 µM (inactive)
COc1cc2oc(-c3ccccc3)cc(=O)c2cc1O,AC50,Cytochrome P450 2D6,31.6 µM (inconclusive)
same,AC50,Cytochrome P450 2C19,5.01 µM (inconclusive)
